Laboratory results reported in patent publication US11344537B2 (BIOVERSYS AG, priority 2019, dated 2022).
Values after ≈ are worked out from the molar mass of the structure shown. Read-outs that look alike come from different tables or passages of the source.

Tests used:
[1] = Preliminary assessment of solubility in solvents (24 h); format: physicochemical; conditions: thermodynamic from solid, 24 h stirring at room temperature, read-out: Solubility (mg/ml) at 24 h
Description: After 24 h stirring at room temperature, samples were centrifuged, and the supernatant analyzed by HPLC.

[2] = Dissolution of rifabutin in DMI or DMI/water with acid and dilution with aqueous solutions; format: physicochemical; conditions: in DMI without water or acid; longer than plausibly acceptable
[3] = in Ethanol (literature data); cited from earlier work
[4] = human, in vivo, cited from earlier work
[5] = HIV-infected patients, 300 mg/day (Hafner et al, 1998); cited from earlier work

CO[C@H]1/C=C/O[C@@]2(C)Oc3c(C)c(O)c4c(c3C2=O)C2=NC3(CCN(CC(C)C)CC3)NC2=C(NC(=O)/C(C)=C\C=C\[C@H](C)[C@H](O)[C@@H](C)[C@@H](O)[C@@H](C)[C@H](OC(C)=O)[C@@H]1C)C4=O [rifabutin]
solubility at 24 h ([1]; aqueous buffer, in Acetate buffer pH 4 (USP)): 11.3 mg/mL (≈ 13300 µM) | solubility at 24 h ([1]; aqueous buffer, in Borate buffer pH 10 (USP)): 1.9 mg/mL (≈ 2240 µM) | solubility at 24 h ([1]; aqueous buffer, in Phosphate buffer pH 6 (USP)): 0.3 mg/mL (≈ 354 µM) | solubility at 24 h ([1]; aqueous buffer, in Phosphate buffer pH 8 (USP)): 0.2 mg/mL (≈ 236 µM) | solubility at 24 h ([1]; aqueous with cosolvent or surfactant or cyclodextrin, in Povidone K12 (5% w/w in water)): 0.5 mg/mL (≈ 590 µM) | solubility at 24 h ([1]; aqueous with cosolvent or surfactant or cyclodextrin, in Tween 80 (1% w/w in water)): 1.3 mg/mL (≈ 1530 µM) | solubility at 24 h ([1]; organic solvent or mixture, in Dimethyl isosorbide (DMI)): ≥ 245 mg/mL | solubility at 24 h ([1]; organic solvent or mixture, in Dimethylacetamide (DMA)): ≥ 204 mg/mL | solubility at 24 h ([1]; organic solvent or mixture, in Glycerol): 0.4 mg/mL (≈ 472 µM) | solubility at 24 h ([1]; organic solvent or mixture, in N-Methyl-2-pyrrolidone (NMP)): ≥ 190 mg/mL | solubility at 24 h ([1]; organic solvent or mixture, in Polyethylene glycol 400 (PEG400)): ≥ 110 mg/mL | solubility at 24 h ([1]; organic solvent or mixture, in Propylene glycol): ≥ 92 mg/mL | solubility at 24 h ([1]; organic solvent or mixture, in Transcutol HP): ≥ 206 mg/mL | solubility at 24 h ([1]; saline or isotonic, in Saline 0.9%): 0.3 mg/mL (≈ 354 µM) | Dissolution of rifabutin in DMI, concentration [2]: > 250 mg/mL | Solubility (mg/ml) at 24 h [3]: 30 mg/mL (≈ 35400 µM) | time at which Cmax is attained after oral administration ([4]; 300 mg): approximately 3 hours | mean Cmax ([4]; po, 300 mg): 375 ng/mL | Cmax ([4]; po, 600 mg): 400 to 700 ng/mL | oral dose absorbed [4]: at least 53% | AUC at steady state [5]: 8600 ± 8200 ng·h/mL | Cmax at steady state [5]: 590 ± 330 ng/mL
